Assay results from the NIST ThermoML archive (doi:10.1016/j.jct.2016.03.016).
± gives the expanded uncertainty stated by the source.

Assay: mn = molality of the nth substance listed, in mol/kg
Conditions: 100 kPa, Liquid; for speed of sound: Frequency=3 MHz, Sing-around technique in a fixed-path interferometer; for mass density: Vibrating tube method

SMILES: CC(C)Cc1ccc(C(C)C(=O)[O-])cc1.[Na+] (stereo not given) [sodium ibuprofen] + O
- speed of sound (288.15 K, m1 = 0.05): 1477.5 ± 2.4 m/s
- speed of sound (288.15 K, m1 = 0.15): 1496.9 ± 2.4 m/s
- speed of sound (288.15 K, m1 = 0.25): 1510.2 ± 2.4 m/s
- speed of sound (288.15 K, m1 = 0.35): 1518.1 ± 2.4 m/s
- mass density (288.15 K, m1 = 0.05): 1003.2 ± 2 kg/m3
- mass density (288.15 K, m1 = 0.15): 1007.46 ± 2 kg/m3
- mass density (288.15 K, m1 = 0.25): 1010.79 ± 2 kg/m3
- mass density (288.15 K, m1 = 0.35): 1015.17 ± 2 kg/m3
- speed of sound (293.15 K, m1 = 0.05): 1492.8 ± 2.4 m/s
- speed of sound (293.15 K, m1 = 0.15): 1510.7 ± 2.4 m/s
- speed of sound (293.15 K, m1 = 0.25): 1522.3 ± 2.4 m/s
- speed of sound (293.15 K, m1 = 0.35): 1529.1 ± 2.4 m/s
- mass density (293.15 K, m1 = 0.05): 1002.24 ± 2 kg/m3
- mass density (293.15 K, m1 = 0.15): 1006.39 ± 2 kg/m3
- mass density (293.15 K, m1 = 0.25): 1009.6 ± 2 kg/m3
- mass density (293.15 K, m1 = 0.35): 1013.83 ± 2 kg/m3
- speed of sound (298.15 K, m1 = 0.05): 1506 ± 2.4 m/s
- speed of sound (298.15 K, m1 = 0.15): 1522.9 ± 2.4 m/s
- speed of sound (298.15 K, m1 = 0.25): 1533.1 ± 2.4 m/s
- speed of sound (298.15 K, m1 = 0.35): 1538.9 ± 2.4 m/s
- mass density (298.15 K, m1 = 0.05): 1001.03 ± 2 kg/m3
- mass density (298.15 K, m1 = 0.15): 1005.07 ± 2 kg/m3
- mass density (298.15 K, m1 = 0.25): 1008.17 ± 2 kg/m3
- mass density (298.15 K, m1 = 0.35): 1012.29 ± 2 kg/m3
- speed of sound (303.15 K, m1 = 0.05): 1517.7 ± 2.4 m/s
- speed of sound (303.15 K, m1 = 0.15): 1533.4 ± 2.4 m/s
- speed of sound (303.15 K, m1 = 0.25): 1542.4 ± 2.4 m/s
- speed of sound (303.15 K, m1 = 0.35): 1547.4 ± 2.4 m/s
- mass density (303.15 K, m1 = 0.05): 999.585 ± 2 kg/m3
- mass density (303.15 K, m1 = 0.15): 1003.52 ± 2 kg/m3
- mass density (303.15 K, m1 = 0.25): 1006.53 ± 2 kg/m3
- mass density (303.15 K, m1 = 0.35): 1010.55 ± 2 kg/m3
- speed of sound (308.15 K, m1 = 0.05): 1527.8 ± 2.4 m/s
- speed of sound (308.15 K, m1 = 0.15): 1542.4 ± 2.4 m/s
- speed of sound (308.15 K, m1 = 0.25): 1550.3 ± 2.4 m/s
- speed of sound (308.15 K, m1 = 0.35): 1554.5 ± 2.4 m/s
- mass density (308.15 K, m1 = 0.05): 997.921 ± 2 kg/m3
- mass density (308.15 K, m1 = 0.15): 1001.77 ± 2 kg/m3
- mass density (308.15 K, m1 = 0.25): 1004.69 ± 2 kg/m3
- mass density (308.15 K, m1 = 0.35): 1008.62 ± 2 kg/m3
